Test results published in patent US5916881A, “High trehalose content syrup” (Kabushiki Kaisha Hayashibara Seibutsu Kagaku Kenkyujo, priority 1996, dated 1999).
“Also recorded” adds a separate entry of the source.

Key:
[1] = Trehalose crystallization inhibitory effect of coexisting saccharides in a trehalose syrup over the water solubility (Experiment 2); assay type: physicochemical; settings: trehalose dissolved in an amount over the water solubility; summary of Table 2
Protocol: Trehalose was dissolved by heating in water in an amount of 1.5-times the water solubility at 10° C., and the trehalose solution was allowed to stand at a relatively-cold place for checking the trehalose crystallization inhibitory effect by saccharides. […] With this relationship, testing solutions were prepared by dissolving by heating in 100 parts by weight of water in a respective glass beaker 83 parts by weight of trehalose, and a saccharide in an amount of 10% to the trehalose, i.e., 8.3 parts by weight of the saccharide selected from the group consisting of glucose, maltose, isomaltose, lactose, maltotriose, panose, maltotetraose, sorbitol, maltitol, maltotriitol, sucrose, raffinose, erlose, saccharides such as α-glucosyltrehalose or monoglucosyltrehalose, α-maltosyltrehalose or diglucosyltrehalose, and α-maltotriosyltrehalose or triglucosyltrehalose as disclosed in Japanese Patent Kokai No.143,876/95 by the present applicant; a saccharide such as α-isomaltosyl-α-glucoside or monoglucosyltrehalose as disclosed in Japanese Patent Kokai No.217,784/96 by the same applicant; and a saccharide such as α-maltosyl-α-maltoside or diglucosyltrehalose as disclosed in Japanese Patent Application No.167,486/94 by the same applicant. Each solution was allowed to stand in a thermostatic place kept at 5, 10 or 15° C. for one week, followed by macroscopically observing the presence of trehalose crystal for evaluating the trehalose crystallization inhibitory effect by the saccharides.

[2] = Influence of the concentrations of trehalose and of mono-/diglucosyltrehalose on trehalose crystallization (Experiment 3); assay type: physicochemical; parameters: key to Formation of trehalose crystal: "+" means that it crystallized; "-" means that it did not
Protocol: The trehalose crystallization inhibitory effect was experimented by dissolving trehalose under heating conditions in water in an amount of 1.5, 2.0, 2.5, 2.8 or 3.3-times the water solubility at 10° C., dissolving in the solution other oligosaccharides having a trehalose structure within their molecules in an amount of 10, 30 or 60% to the trehalose, d.s.b, and allowing the resultant solution to stand at a relatively-low temperature.
Based on the results in Experiment 1, 1.5, 2.0, 2.5, 2.8 and 3.3-times the water solubility of trehalose in 100 parts by weight of water at 10° C. water corresponded to 83, 111, 138, 155 and 182 parts by weight of trehalose anhydride, d.s.b., respectively With this relationship, testing solutions with the composition as shown in Table 3 were prepared by dissolving under heating conditions in a respective glass beaker 100 parts by weight of water, trehalose in a prescribed part by weight, and either monoglucosyltrehalose, i.e., α-glucosyltrehalose or diglucosyltrehalose, i.e., α-maltosyltrehalose in a prescribed ratio, allowing the solution to stand in a thermostatic place kept at 5, 10 or 15° C. for checking the trehalose crystallization inhibitory effect.

OC[C@H]1O[C@H](O[C@H]2O[C@H](CO)[C@@H](O[C@H]3O[C@H](CO)[C@@H](O[C@H]4O[C@H](CO)[C@@H](O)[C@H](O)[C@H]4O)[C@H](O)[C@H]3O)[C@H](O)[C@H]2O)[C@H](O)[C@@H](O)[C@@H]1O [α-Maltosyltrehalose, α-maltosyltrehalose]
Trehalose crystallization inhibitory effect (in words) [1]: specifically and effectively inhibited
Amount of trehalose, times the water solubility, beyond which crystallization of trehalose was observed ([2]; coexisting diglucosyltrehalose): exceeds 2.8 times the water solubility
Trehalose crystallization inhibitory effect (in words) ([2]; summary of Table 3, listed as diglucosyltrehalose): satisfactory trehalose crystallization inhibitory effect; also recorded: stronger effect
Formation of trehalose crystal ([2]; water 100, trehalose 83, coexisting saccharide 8.3 parts by weight, 5° C. (1.7-times solubility)): -
Formation of trehalose crystal ([2]; water 100, trehalose 83, coexisting saccharide 8.3 parts by weight, 10° C. (1.5-times solubility)): -
Formation of trehalose crystal ([2]; water 100, trehalose 83, coexisting saccharide 8.3 parts by weight, 15° C. (1.3-times solubility)): -
Formation of trehalose crystal ([2]; water 100, trehalose 83, coexisting saccharide 25 parts by weight, 5° C. (1.7-times solubility)): -
Formation of trehalose crystal ([2]; water 100, trehalose 83, coexisting saccharide 25 parts by weight, 10° C. (1.5-times solubility)): -
Formation of trehalose crystal ([2]; water 100, trehalose 83, coexisting saccharide 25 parts by weight, 15° C. (1.3-times solubility)): -
Formation of trehalose crystal ([2]; water 100, trehalose 83, coexisting saccharide 50 parts by weight, 5° C. (1.7-times solubility)): -
Formation of trehalose crystal ([2]; water 100, trehalose 83, coexisting saccharide 50 parts by weight, 10° C. (1.5-times solubility)): -
Formation of trehalose crystal ([2]; water 100, trehalose 83, coexisting saccharide 50 parts by weight, 15° C. (1.3-times solubility)): -
Formation of trehalose crystal ([2]; water 100, trehalose 111, coexisting saccharide 11 parts by weight, 5° C. (2.2-times solubility)): -
Formation of trehalose crystal ([2]; water 100, trehalose 111, coexisting saccharide 11 parts by weight, 10° C. (2.0-times solubility)): -
Formation of trehalose crystal ([2]; water 100, trehalose 111, coexisting saccharide 11 parts by weight, 15° C. (1.8-times solubility)): -
Formation of trehalose crystal ([2]; water 100, trehalose 111, coexisting saccharide 33 parts by weight, 5° C. (2.2-times solubility)): -
Formation of trehalose crystal ([2]; water 100, trehalose 111, coexisting saccharide 33 parts by weight, 10° C. (2.0-times solubility)): -
Formation of trehalose crystal ([2]; water 100, trehalose 111, coexisting saccharide 33 parts by weight, 15° C. (1.8-times solubility)): -
Formation of trehalose crystal ([2]; water 100, trehalose 111, coexisting saccharide 66 parts by weight, 5° C. (2.2-times solubility)): -
Formation of trehalose crystal ([2]; water 100, trehalose 111, coexisting saccharide 66 parts by weight, 10° C. (2.0-times solubility)): -
Formation of trehalose crystal ([2]; water 100, trehalose 111, coexisting saccharide 66 parts by weight, 15° C. (1.8-times solubility)): -
Formation of trehalose crystal ([2]; water 100, trehalose 138, coexisting saccharide 14 parts by weight, 5° C. (2.8-times solubility)): +
Formation of trehalose crystal ([2]; water 100, trehalose 138, coexisting saccharide 14 parts by weight, 10° C. (2.5-times solubility)): -
Formation of trehalose crystal ([2]; water 100, trehalose 138, coexisting saccharide 14 parts by weight, 15° C. (2.2-times solubility)): -
Formation of trehalose crystal ([2]; water 100, trehalose 138, coexisting saccharide 42 parts by weight, 5° C. (2.8-times solubility)): +
Formation of trehalose crystal ([2]; water 100, trehalose 138, coexisting saccharide 42 parts by weight, 10° C. (2.5-times solubility)): -
Formation of trehalose crystal ([2]; water 100, trehalose 138, coexisting saccharide 42 parts by weight, 15° C. (2.2-times solubility)): -
Formation of trehalose crystal ([2]; water 100, trehalose 138, coexisting saccharide 83 parts by weight, 5° C. (2.8-times solubility)): -
Formation of trehalose crystal ([2]; water 100, trehalose 138, coexisting saccharide 83 parts by weight, 10° C. (2.5-times solubility)): -
Formation of trehalose crystal ([2]; water 100, trehalose 138, coexisting saccharide 83 parts by weight, 15° C. (2.2-times solubility)): -
Formation of trehalose crystal ([2]; water 100, trehalose 155, coexisting saccharide 16 parts by weight, 5° C. (3.1-times solubility)): +
Formation of trehalose crystal ([2]; water 100, trehalose 155, coexisting saccharide 16 parts by weight, 10° C. (2.8-times solubility)): +
Formation of trehalose crystal ([2]; water 100, trehalose 155, coexisting saccharide 16 parts by weight, 15° C. (2.5-times solubility)): -
Formation of trehalose crystal ([2]; water 100, trehalose 155, coexisting saccharide 46 parts by weight, 5° C. (3.1-times solubility)): +
Formation of trehalose crystal ([2]; water 100, trehalose 155, coexisting saccharide 46 parts by weight, 10° C. (2.8-times solubility)): +
Formation of trehalose crystal ([2]; water 100, trehalose 155, coexisting saccharide 46 parts by weight, 15° C. (2.5-times solubility)): -
Formation of trehalose crystal ([2]; water 100, trehalose 155, coexisting saccharide 93 parts by weight, 5° C. (3.1-times solubility)): +
Formation of trehalose crystal ([2]; water 100, trehalose 155, coexisting saccharide 93 parts by weight, 10° C. (2.8-times solubility)): -
Formation of trehalose crystal ([2]; water 100, trehalose 155, coexisting saccharide 93 parts by weight, 15° C. (2.5-times solubility)): -
Formation of trehalose crystal ([2]; water 100, trehalose 182, coexisting saccharide 18 parts by weight, 5° C. (3.7-times solubility)): +
Formation of trehalose crystal ([2]; water 100, trehalose 182, coexisting saccharide 18 parts by weight, 10° C. (3.3-times solubility)): +
Formation of trehalose crystal ([2]; water 100, trehalose 182, coexisting saccharide 18 parts by weight, 15° C. (3.0-times solubility)): +
Formation of trehalose crystal ([2]; water 100, trehalose 182, coexisting saccharide 55 parts by weight, 5° C. (3.7-times solubility)): +
Formation of trehalose crystal ([2]; water 100, trehalose 182, coexisting saccharide 55 parts by weight, 10° C. (3.3-times solubility)): +
Formation of trehalose crystal ([2]; water 100, trehalose 182, coexisting saccharide 55 parts by weight, 15° C. (3.0-times solubility)): +
Formation of trehalose crystal ([2]; water 100, trehalose 182, coexisting saccharide 110 parts by weight, 5° C. (3.7-times solubility)): +
Formation of trehalose crystal ([2]; water 100, trehalose 182, coexisting saccharide 110 parts by weight, 10° C. (3.3-times solubility)): +
Formation of trehalose crystal ([2]; water 100, trehalose 182, coexisting saccharide 110 parts by weight, 15° C. (3.0-times solubility)): +
